# Experimental data as given in article PMC5382200, “Mapping and Identification of Antifungal Peptides in the Putative Antifungal Protein AfpB from the Filamentous Fungus Penicillium digitatum” (Frontiers in Microbiology, 2017).
# “Also recorded” adds a separate entry of the source. Like-named read-outs stand apart in the source and are kept apart here. Positions of bridges follow the written chain, without caps; N, C: chain ends. Residues, ends and D or L forms follow the SMILES beside them. No end group written: not given here.
# Key:
# recombinant proteinase K [1] = molecular target: T1, recombinant proteinase K (Parengyodontium album, UniProt P06873); experiment: Proteolytic digestion assay with RP-HPLC analysis; format: in vitro ADME; settings: two replicates; for resistance to degradation by proteinase K (in words): peptide 5 μM in 10 mM MOPS pH 7, 30°C, 0, 1, 2 and 24 h
# T1 construct: purchased Roche, Mannheim, Germany
# Protocol: (§1) The proteolytic digestion assays were performed as described ([Ferre et al., 2006]; [López-García et al., 2015]) with minor modifications. Peptides (5 μM) were dissolved in 10 mM MOPS pH 7 and digested with 5 μg/mL of recombinant proteinase K (2 U/mg; Roche, Mannheim, Germany) at 30°C. Aliquots were withdrawn from the reaction mixtures at 0, 1, 2, and 24 h of incubation and immediately heated at 80°C for 10 min to inactivate the enzyme. Two replicates were prepared for each treatment, and the experiments were repeated at least twice.
# (§2) Analyses of peptide digests were conducted by RP-HPLC using a Waters system (Waters Corporation, Milford, MA, USA) equipped with a 1525 Binary HPLC pump, a 2996 Photodiode Array Detector, and a 717 plus Autosampler. A Symmetry C18 column (4.6 mm × 150 mm, 5 μm, Waters Corporation) kept at 40°C was operated at a flow rate of 1 mL/min. Peptides were eluted with a linear gradient of solvent B [acetonitrile with 0.1% trifluoroacetic acid (TFA)] in solvent A (water with 0.1% TFA) 0–40% in 20 min and detected at 214 nm.
# proteinase K = system: T2, proteinase K; experiment: Proteolytic digestion assay with RP-HPLC analysis; format: in vitro ADME; settings: recombinant proteinase K; proteinase K 5 μg/mL (2 U/mg), peptide 5 μM in 10 mM MOPS pH 7, 30°C, 24 h; RP-HPLC C18 peak area at 214 nm; two replicates; read-out: peptide left after 24 h of treatment
# T2 construct: purchased Roche, Mannheim, Germany
# Protocol: as §1, §2
# P. digitatum CECT20796 = system: P. digitatum CECT20796
# Protocol: (§3) The fungal strains used in this study are P. digitatum CECT20796, P. chrysogenum Q176, Botrytis cinerea CECT2100, Fusarium oxysporum 4287, and Aspergillus niger CBS 120.49. Fungi were cultured on potato dextrose agar (Difco-BD Diagnostics, Sparks, MD, USA) plates for 7–10 days at 24°C with the exception of F. oxysporum, which was cultured on potato dextrose broth (PDB; Difco-BD Diagnostics) at 28°C for 4 days with shaking. Conidia (mitotic asexual spores) were collected, filtered, and adjusted to the appropriate concentration. For antibacterial assays, the Gram-negative bacterium Escherichia coli JM109 was grown in Luria-Bertani (LB) medium at 37°C with shaking.
# (§4) Growth inhibition assays were performed in 96-well microtiter plates (Nunc, Roskilde, Denmark) in a total volume of 100 μL as described previously ([López-García et al., 2002]). […] All samples were prepared in triplicate. Plates were statically incubated for 72 h at the optimal temperature of each microorganism. Growth was determined by measuring the optical density (OD) at 600 nm (OD600) using a Multiskan Spectrum plate spectrophotometer (Thermo Electron Corporation, Vantaa, Finland), and the OD600 mean and SD were calculated. Dose–response curves were generated from measurements after 72 h for fungi, and 48 h for E. coli. These experiments were repeated at least twice.
# P. chrysogenum Q176 = settings: 72 h
# Protocol: as §3, §4
# B. cinerea CECT2100 = system: B. cinerea CECT2100
# Protocol: as §3, §4
# A. niger CBS 120.49 = system: A. niger CBS 120.49
# Protocol: as §3, §4
# mammalian cells = settings: ref Marx et al., 2008; cited from earlier work
# From the text: (§5) There is an urgent need to develop new antifungal molecules with properties and mechanisms of action different from existing ones ([Brown et al., 2012]; [Fisher et al., 2012]). […] A remarkable group of AMPs are the antifungal proteins (AFPs) of fungal origin. AFPs belong to the broad class of defensins and are p ...
# [2] = ref Palicz et al., 2013; cited from earlier work
# From the text: as §5
# recombinant proteinase K [3] = molecular target: T1, recombinant proteinase K; settings: control peptide; ref López-García et al., 2015; cited from earlier work
# Protocol: To exclude the possibility that increased sensitivity to proteolytic degradation could be the reason for limited antifungal activity, we tested the in vitro stability of the peptides derived from AfpB by incubation with proteinase K at different times and RP-HPLC analysis of the resultant digests.
# F. oxysporum 4287 = settings: 4287, 72 h
# Protocol: as §3, §4
# [4] = proteinase K 5 μg/mL, RP-HPLC peak area at 214 nm
# [5] = B. cinerea CECT2100, 2.5 × 10^4 conidia/mL in 1/20 diluted PDB with 0.01% chloramphenicol, 72 h, OD600, triplicate
# T1 sequence (P06873 106-384): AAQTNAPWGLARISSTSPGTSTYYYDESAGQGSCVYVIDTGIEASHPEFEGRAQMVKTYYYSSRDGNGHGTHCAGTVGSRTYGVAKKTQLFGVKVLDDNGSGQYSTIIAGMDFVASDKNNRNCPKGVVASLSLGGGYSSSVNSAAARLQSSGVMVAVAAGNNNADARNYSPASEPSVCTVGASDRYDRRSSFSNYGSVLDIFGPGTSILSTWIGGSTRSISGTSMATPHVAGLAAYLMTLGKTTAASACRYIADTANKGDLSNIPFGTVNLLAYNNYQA
Molecule,resistance to degradation by proteinase K (in words) (recombinant proteinase K [1]; [4]),"Minimum inhibitory concentration (MIC) (P. digitatum CECT20796; CECT20796, 72 h) [µM]",Minimum inhibitory concentration (MIC) (P. chrysogenum Q176) [µM],Minimum inhibitory concentration (MIC) (B. cinerea CECT2100; [5]) [µM],"Minimum inhibitory concentration (MIC) (A. niger CBS 120.49; CBS 120.49, 72 h) [µM]",other results
CC(C)[C@@H]1NC(=O)[C@H](CCCNC(=N)N)NC(=O)[C@H](CCCNC(=N)N)NC(=O)[C@H](Cc2c[nH]cn2)NC(=O)[C@H](Cc2c[nH]cn2)NC(=O)[C@H](CCC(=O)O)NC(=O)[C@H](CC(=O)O)NC(=O)[C@H](Cc2ccc(O)cc2)NC(=O)[C@H](CCC(=O)O)NC(=O)[C@@H](NC(=O)[C@@H](N)Cc2c[nH]cn2)CSSC[C@@H](C(=O)N[C@@H](CCC(N)=O)C(=O)O)NC(=O)[C@H](CC(=O)O)NC1=O [PAF119] (H-HCEYDEHHRRVDCQ-OH; disulfide 2-13),remarkably resistant; also recorded: extremely stable,,,,,
CC(C)C[C@@H]1NC(=O)[C@H](CO)NC(=O)[C@@H](NC(=O)[C@H](CCC(N)=O)NC(=O)CN)CSSC[C@@H](C(=O)N[C@H](C(=O)O)[C@@H](C)O)NC(=O)[C@H]([C@@H](C)O)NC(=O)[C@H](CC(N)=O)NC(=O)[C@H](Cc2c[nH]cn2)NC(=O)[C@H](CCCCN)NC1=O [PAF109] (H-GQCSLKHNTCT-OH; disulfide 3-10),remarkably resistant; also recorded: extremely stable,,,,,
C[C@@H]1NC(=O)[C@H](C)NC(=O)[C@H](CO)NC(=O)CNC(=O)[C@@H](NC(=O)[C@@H](N)CC(N)=O)CSSC[C@@H](C(=O)N[C@@H](CCC(=O)O)C(=O)O)NC(=O)[C@H](Cc2c[nH]cn2)NC(=O)[C@H](Cc2c[nH]cn2)NC(=O)[C@H](CCCNC(=N)N)NC(=O)[C@H](CC(=O)O)NC(=O)[C@H](CO)NC(=O)[C@H](CCCCN)NC(=O)[C@H](C)NC(=O)[C@H](CCCNC(=N)N)NC(=O)[C@H](CCCCN)NC(=O)[C@H](CC(N)=O)NC1=O [PAF112] (H-NCGSAANKRAKSDRHHCE-OH; disulfide 2-17),,64,>128,128,>128,"remaining at 24 h, 5 μM (proteinase K): ~20%"
C[C@@H]1NC(=O)[C@H](CCCCN)NC(=O)[C@H](CCCCN)NC(=O)[C@H](CC(N)=O)NC(=O)[C@H](CC(=O)O)NC(=O)[C@H](Cc2ccccc2)NC(=O)[C@H](CCCCN)NC(=O)[C@@H]2CCCN2C(=O)[C@@H](NC(=O)[C@@H](N)CCCCN)CSSC[C@@H](C(=O)N[C@H](C(=O)O)[C@@H](C)O)NC(=O)[C@H](CCCCN)NC(=O)[C@H](CC(N)=O)NC(=O)[C@H](CC(N)=O)NC(=O)[C@H](CC(=O)O)NC(=O)[C@H](CCCCN)NC(=O)[C@H]([C@@H](C)O)NC1=O [PAF116] (H-KCPKFDNKKATKDNNKCT-OH; disulfide 2-17),,32,,16,,
NAGSAANKRAKSDRHHAE [PAF113],high sensitivity,,,128,,"degradation after 1 h of treatment (recombinant proteinase K [1]; proteinase K 5 μg/mL, peptide 5 μM in 10 mM MOPS pH 7, 30°C, 1 h, RP-HPLC peak area at 214 nm): completely degraded; Minimum inhibitory concentration (MIC) (P. digitatum CECT20796; P. digitatum CECT20796, 2.5 × 10^4 conidia/mL in 1/20 diluted PDB with 0.01% chloramphenicol, 72 h, 24°C, OD600, triplicate, repeated at least twice, concentration that completely inhibited growth in all experiments): 64 µM; Minimum inhibitory concentration (MIC) (P. chrysogenum Q176; P. chrysogenum Q176, 2.5 × 10^4 conidia/mL in 1/20 diluted PDB with 0.01% chloramphenicol, OD600, triplicate): >128 µM; Minimum inhibitory concentration (MIC) (A. niger CBS 120.49; A. niger CBS 120.49, 2.5 × 10^4 conidia/mL in 1/20 diluted PDB with 0.01% chloramphenicol, 72 h, OD600, triplicate): >128 µM"
"AKYTGKCTKSKNECKYKNDAGKDTFIKCPKFDNKKCTKDNNKCTVDTYNNAVDCD (disulfide 7-36, 14-43, 28-54) [PAF protein]",,,,,,toxicity to mammalian cells in vitro (mammalian cells): non-toxic; toxicity in vivo [2]: non-toxic
"RKKWFW [PAF26, reference compound]",,8,16,,8,"resistance to protease degradation (recombinant proteinase K [3]): highly resistant; Minimum inhibitory concentration (MIC) (F. oxysporum 4287): 16 µM; Minimum inhibitory concentration (MIC) (B. cinerea CECT2100; CECT2100, 72 h): 8 µM"
CC[C@H](C)[C@@H]1NC(=O)[C@H](C(C)C)NC(=O)[C@H](CC(N)=O)NC(=O)[C@H](CCCNC(=N)N)NC(=O)CNC(=O)CNC(=O)[C@H](CCCCN)NC(=O)[C@H](CC(C)C)NC(=O)[C@H](Cc2ccc(O)cc2)NC(=O)[C@H]([C@@H](C)O)NC(=O)[C@@H](NC(=O)[C@@H](NC(=O)[C@@H](N)CC(N)=O)[C@@H](C)O)CSSC[C@@H](C(=O)NCC(=O)O)NC(=O)[C@H](CC(N)=O)NC(=O)[C@H](C(C)C)NC1=O [PAF118] (H-NTCTYLKGGRNVIVNCG-OH; disulfide 3-16),,64,>128,64,>128,"peptide left after 24 h of treatment (recombinant proteinase K [1]; proteinase K 5 μg/mL (2 U/mg), peptide 5 μM in 10 mM MOPS pH 7, 30°C, 24 h, RP-HPLC C18 peak area at 214 nm): around 20%; intact peptide after 1 and 2 h of treatment (recombinant proteinase K [1]; proteinase K 5 μg/mL, peptide 5 μM in 10 mM MOPS pH 7, 30°C, 1 and 2 h, RP-HPLC peak area at 214 nm): severe reduction"
